Results taken from patent US5985897A, “Benzothiphene compounds, intermediates, compositions, and methods” (priority 1997, dated 1999).

Experiments:
Serum cholesterol = Serum cholesterol analysis in ovariectomized rats (4-day oral dosing); type: in vivo, rat (female Sprague Dawley; settings: for Serum Cholest. % Dec. (decrease versus ovariectomized controls): daily for 4 days, * p < .05
Method: (§1) In the examples illustrating the methods, a postmenopausal model was used in which effects of different treatments upon circulating lipids were determined.
(§2) Seventy-five day old female Sprague Dawley rats (weight range of 200 to 225 g) were obtained from Charles River Laboratories (Portage, Mich.). The animals were either bilaterally ovariectomized (OVX) or exposed to a sham surgical procedure at Charles River Laboratories, and then shipped after one week. Upon arrival, they were housed in metal hanging cages in groups of 3 or 4 per cage and had ad libitum access to food (calcium content approximately 0.5%) and water for one week. Room temperature was maintained at 22.2°±1.70° C. with a minimum relative humidity of 40%. The photoperiod in the room was 12 hours light and 12 hours dark.
(§3) Dosing Regimen Tissue Collection. After a one week acclimation period (therefore, two weeks post-OVX) daily dosing with test compound was initiated. 17α-ethynyl estradiol or the test compound were given orally, unless otherwise stated, as a suspension in 1% carboxymethylcellulose or dissolved in 20% cyclodextrin. Animals were dosed daily for 4 days. Following the dosing regimen, animals were weighed and anesthetized with a ketamine:xylazine (2:1, V:V) mixture and a blood sample was collected by cardiac puncture. The animals were then sacrificed by asphyxiation with CO2, the uterus was removed through a midline incision, and a wet uterine weight was determined.
Cholesterol Analysis. Blood samples were allowed to clot at room temperature for 2 hours, and serum was obtained following centrifugation for 10 minutes at 3000 rpm. Serum cholesterol was determined using a Boehringer Mannheim Diagnostics high performance cholesterol assay. Briefly the cholesterol was oxidized to cholest-4-en-3-one and hydrogen peroxide. The hydrogen peroxide was then reacted with phenol and 4-aminophenazone in the presence of peroxidase to produce a p-quinone imine dye, which was read spectrophotemetrically at 500 nm. Cholesterol concentration was then calculated against a standard curve.
Data presented in Table 1 below show comparative results among ovariectomized rats, rats treated with 17α-ethynyl estradiol (EE2; an orally available form of estrogen), and rats treated with certain compounds of the instant invention. […] This uterine response to estrogen is well recognized in the art.
The data presented in Table 1 below reflects the response of 5 to 6 rats per treatment.

uterus = system: uterus; set-up: species or system rat (female Sprague Dawley, ovariectomized); settings: rat, in vivo, po, 0.1 mg/kg/day
Method: as §1, §2
as §3, with “Following the dosing regimen, animals were weighed and anesthetized with a ketamine:xylazine (2:1, V:V) mixture and a blood sample was collected by cardiac puncture.” left out, “determined. […]” for “determined.”

Eosinophil peroxidase = system: Eosinophil peroxidase; set-up: species or system rat (female Sprague Dawley, ovariectomized); settings: rat, in vivo
Excerpt: as §2
Dosing Regimen Tissue Collection. […] The animals were then sacrificed by asphyxiation with CO2, the uterus was removed through a midline incision, and a wet uterine weight was determined.
Uterine Eosinophil Peroxidase (EPO) Assay. […] Upon addition of 0.01% hydrogen peroxide and 10 mM O-phenylenediamine (final concentrations) in Tris buffer, increase in absorbance was monitored for one minute at 450 nm. […] The maximal velocity of a 15 second interval was determined over the initial, linear portion of the reaction curve.
As is expressed in the data below, estrogenicity also was assessed by evaluating the adverse response of eosinophil infiltration into the uterus. […]

femur density = test: Osteoporosis Test Procedure (femur density, ovariectomized rats); type: in vivo, rat; settings: orally administered
Method: Following the General Preparation Procedure, infra, the rats are treated daily for 35 days (6 rats per treatment group) and sacrificed by carbon dioxide asphyxiation on the 36th day. The 35 day time period is sufficient to allow maximal reduction in bone density, measured as described herein. At the time of sacrifice, the uteri are removed, dissected free of extraneous tissue, and the fluid contents are expelled before determination of wet weight in order to confirm estrogen deficiency associated with complete ovariectomy. […] The uteri are then placed in 10% neutral buffered formalin to allow for subsequent histological analysis. The right femurs are excised and digitilized x-rays generated and analyzed by an image analysis program (NIH image) at the distal metaphysis. The proximal aspect of the tibiae from these animals are also scanned by quantitative computed tomography. In accordance with the above procedures, compounds of the instant invention and ethynyl estradiol (EE2) in 20% hydroxypropyl β-cyclodextrin are orally administered to test animals. Distal femur metaphysis and proximal tibiae data are compared to intact and ovariectomized test animals. Results are reported as percent protection relative to ovariectomy. Ovariectomy of the test animals causes a significant reduction in femur density compared to intact, vehicle treated controls. […]

[1] = 0.1 mg/kg PO, negative = increase

Uterine Eosinophil (Vmax), eosinophil peroxidase (Eosinophil peroxidase) | Compound | Serum Cholest. % Dec. (decrease versus ovariectomized controls) (Serum cholesterol; [1]) [%] | Serum Cholest. % Dec. (decrease versus ovariectomized controls) (Serum cholesterol; 1.0 mg/kg PO) [%] | Serum Cholest. % Dec. (decrease versus ovariectomized controls) (Serum cholesterol; 10.0 mg/kg PO) [%] | uterine weight (in words) (uterus) | eosinophil infiltration into the uterus (in words) (Eosinophil peroxidase) | serum cholesterol (in words) (Serum cholesterol; oral, versus ovariectomized control animals, EE2 at 0.1 mg/kg/day) | loss of femur density after ovariectomy (in words) (femur density)
 | Cl.c1ccc2c(Oc3ccc(OCCN4CCCCC4)cc3)c(C3CCCCC3)sc2c1 [Example 11, 3-[4-[2-(1-Piperidinyl)ethoxy]phenoxy]-2-cyclohexylbenzo[b]thiophene Hydrochloride] | 55.8 | 58.9 | 50.2 |  |  |  | 
212.4 | C#C[C@]1(O)CC[C@H]2[C@@H]3CCc4cc(O)ccc4[C@H]3CC[C@@]21C [EE2, 17α-ethynyl estradiol, reference compound] | 76.6 |  |  | substantially greater than the uterine weight of ovariectomized test animals | substantial, expected increase in eosinophil infiltration | caused a decrease in serum cholesterol | prevents this loss
 | CC(C)c1sc2ccccc2c1Oc1ccc(OCCN2CCCCC2)cc1.Cl [Example 4, 3-[4-[2-(1-Piperidinyl)ethoxy]phenoxy]-2-(2-propyl]benzo[b]thiophene Hydrochloride] | -27.6 | 19.2 | 61.6 |  |  |  | 
 | CCCc1sc2ccccc2c1Oc1ccc(OCCN2CCCCC2)cc1.Cl [Example 7, 3-[4-[2-(1-Piperidinyl)ethoxy]phenoxy]-2-propylbenzo[b]thiophene Hydrochloride] | -11.1 | 41.2 | 46.6 |  |  |  | 
